Like-named read-outs stand apart in the source and are kept apart here. Residues, ends and D or L forms follow the SMILES beside them.
Tests used:
[1] = tested on: horse erythrocytes; assay: Cytotoxicity assay: haemoglobin release (hemolytic activity); assay type: cell-based; conditions: washed horse erythrocytes 10% (v/v) in PBS, 60 min 37°C, absorbance 540 nm, relative to full lysis by 0.2% Triton X-100, average ± SD of duplicates
Description: The cytotoxicity for each AMP was determined spectrophotometrically by measuring the haemoglobin release from horse erythrocytes. Briefly, fresh defibrinated horse blood was washed three times with PBS, centrifuged for 15 minutes at 1000g and resuspended at 10% (v/v) in PBS. Samples of the washed horse erythrocytes (100 μl) were transferred to a 96 well microtiter plate and mixed with 100 μl AMP solution. PBS was used as a negative control, and 0.2% TritonX-100 was used as a positive control. The microtiter plates were incubated for 60 minutes at 37°C and then centrifuged for 10 minutes at 1300g. The supernatants were transferred to a flat-bottom 96 well polystyrene microtiter plate and the haemoglobin release was monitored by measuring the absorbance at 540 nm. The percentage of hemolysis was calculated as 100 *(Asample−APBS)/(ATritonX-100 –APBS), where Asample is the experimental absorbance of the peptide sample, APBS is the control absorbance of untreated erythrocytes, and ATritonX-100 is the absorbance of 0.2% TritonX-100 lysed cells.

[2] = tested on: BW25113 wild-type; assay: MIC in LPS backgrounds; assay type: cell-based, Escherichia coli; conditions: E. coli BW25113 wild-type; CLSI; triplicates
Excerpt: (§1) The Yersinia ruckeri strain was kindly provided by Prof. Kurt Buchmann, University of Copenhagen, Faculty of Health and Medical Sciences, and the Flavobacterium psychrophilum strain was kindly provided by Prof. Inger Dalsgaard, DTU, Denmark. BW25113 is the Escherichia coli wild-type strain, a derivative of the F^-,λ^- E. coli K12 strain BD792 which was used in generating the KEIO collection. E. coli ATCC25922 is a clinical isolate, serotype O6 and is often used as control strain in antimicrobial susceptibility testing. All strains were grown in Mueller-Hinton-II medium, except L. monocytogenes which was grown in BHI medium and F. psychrophilum which was grown in TYES medium (Tryptone yeast extract plus salts). Incubation took place aerobically at 37°C, except for Y. ruckeri and A. salmonicida, which were grown aerobically at RT (20°C), C. jejuni NCTC11168 which was grown under microaerophilic conditions at 42°C and F. psychrophilum 1947 which was grown under aerobic conditions at 15°C. All plates were incubated for 18–20 hours, except the F. psychrophilum plates, which were incubated for 72 hours.
(§2) The minimum inhibitory concentrations (MICs) of the AMPs were measured in 96-well microtiter plates according to the Clinical and Laboratory Standards Institute (CLSI, formerly National Committee for Clinical Laboratory Standards [NCCLS]). Briefly, liquid Mueller-Hinton-II medium containing increasing concentrations of AMPs is inoculated with a defined number of cells (approx. 10^5 CFUs/ml) in 96-well microtiter plates (polypropylene), whereas each plate also includes a positive growth control and a negative control (sterile control). After incubation, the MIC is determined by the lowest concentration showing no visible growth. All plates were incubated for 18–20 hours, except the F. psychrophilum plates which were incubated for 72 hours.

[3] = tested on: BW25113 ΔrfaC; assay type: cell-based, Escherichia coli; conditions: E. coli BW25113 ΔrfaC; CLSI; triplicates
Excerpt: as §1, §2

[4] = tested on: BW25113 ΔrfaE; assay type: cell-based, Escherichia coli; conditions: E. coli BW25113 ΔrfaE; CLSI; triplicates
Excerpt: as §1, §2

[5] = tested on: BW25113 ΔrfaF; assay type: cell-based, Escherichia coli; conditions: E. coli BW25113 ΔrfaF; CLSI; triplicates
Excerpt: as §1, §2

[6] = tested on: BW25113 ΔrfaG; assay type: cell-based, Escherichia coli; conditions: E. coli BW25113 ΔrfaG; CLSI; triplicates
Excerpt: as §1, §2

[7] = tested on: ATCC25922 ΔrfaC; assay type: cell-based, Escherichia coli; conditions: E. coli ATCC25922 ΔrfaC; CLSI; triplicates
Excerpt: as §1, §2
(§3) Construction of knock-out mutants of E. coli ATCC25922 were constructed using the λ-Red recombinase gene replacement system. Primers for amplification of the npt gene of pKD4 are listed in S1 Table. The correct double-crossover and recombination event was confirmed by primers listed in S1 Table and by sequencing. Finally, the kanamycin cassette was removed.

[8] = tested on: ATCC25922 ΔrfaE; assay type: cell-based, Escherichia coli; conditions: E. coli ATCC25922 ΔrfaE; CLSI; triplicates
Excerpt: as §1, §2, §3

[9] = tested on: ATCC25922 ΔrfaF; assay type: cell-based, Escherichia coli; conditions: E. coli ATCC25922 ΔrfaF; CLSI; triplicates
Excerpt: as §1, §2, §3

[10] = tested on: ATCC25922 ΔrfaG; assay type: cell-based, Escherichia coli; conditions: E. coli ATCC25922 ΔrfaG; CLSI; triplicates
Excerpt: as §1, §2, §3

[11] = tested on: E. coli ATCC25922; assay type: cell-based, Escherichia coli
Excerpt: as §1
All plates were incubated for 18–20 hours, except the F. psychrophilum plates which were incubated for 72 hours.
All the MIC measurements were carried out in duplicate.

[12] = tested on: E. coli ATCC25922
Description: as §2, with “hours. […]” for “hours.”

| Structure (SMILES) | Hemolytic Activity ([1]; peptide 128 μg/ml) [%] | Antimicrobial Activity MIC [2] [µg/mL] | Antimicrobial Activity MIC [3] [µg/mL] | Antimicrobial Activity MIC [4] [µg/mL] | Antimicrobial Activity MIC [5] [µg/mL] | Antimicrobial Activity MIC [6] [µg/mL] | Antimicrobial Activity MIC [7] [µg/mL] | Antimicrobial Activity MIC [8] [µg/mL] | Antimicrobial Activity MIC [9] [µg/mL] | Antimicrobial Activity MIC [10] [µg/mL] | Hemolytic Activity ([1]; peptide 256 μg/ml) [%] | Antimicrobial Activity MIC [11] [µg/mL] | Antimicrobial Activity MIC [12] [µg/mL] |
| --- | --- | --- | --- | --- | --- | --- | --- | --- | --- | --- | --- | --- | --- |
| CC[C@H](C)[C@H](NC(=O)CN)C(=O)NCC(=O)N[C@@H](C)C(=O)N[C@H](C(=O)N[C@@H](CC(C)C)C(=O)N[C@@H](CCCCN)C(=O)N[C@H](C(=O)N[C@@H](CC(C)C)C(=O)N[C@H](C(=O)N[C@H](C(=O)NCC(=O)N[C@@H](CC(C)C)C(=O)N1CCC[C@H]1C(=O)N[C@@H](C)C(=O)N[C@@H](CC(C)C)C(=O)N[C@H](C(=O)N[C@@H](CO)C(=O)N[C@@H](Cc1c[nH]c2ccccc12)C(=O)N[C@H](C(=O)N[C@@H](CCCCN)C(=O)N[C@@H](CCCNC(=N)N)C(=O)N[C@@H](CCCCN)C(=O)N[C@@H](CCCNC(=N)N)C(=O)N[C@@H](CCC(N)=O)C(=O)N[C@@H](CCC(N)=O)C(N)=O)[C@@H](C)CC)[C@@H](C)CC)[C@@H](C)O)[C@@H](C)O)C(C)C)C(C)C [Melittin, reference compound] | 110 ± 1 | 16 to 32 | 4 | 4 | 4 | 4 | 2 | 2 | 2 | 4 |  |  |  |
| CC[C@H](C)[C@H](NC(=O)[C@@H]1CCCN1C(=O)[C@H](CCCNC(=N)N)NC(=O)[C@@H]1CCCN1C(=O)[C@@H]1CCCN1C(=O)[C@@H](NC(=O)[C@@H]1CCCN1C(=O)[C@H](CCCNC(=N)N)NC(=O)[C@@H]1CCCN1C(=O)[C@H](CC(C)C)NC(=O)[C@H](Cc1ccc(O)cc1)NC(=O)[C@H](CO)NC(=O)CNC(=O)[C@H](CCCCN)NC(=O)[C@H](CC(=O)O)NC(=O)[C@@H](N)C(C)C)[C@@H](C)O)C(=O)N[C@@H](Cc1ccc(O)cc1)C(=O)N[C@@H](CC(N)=O)C(=O)N[C@@H](CCCNC(=N)N)C(=O)N[C@@H](CC(N)=O)C(=O)O [Pyrrhocoricin] (H-VDKGSYLPRPTPPRPIYNRN-OH) |  |  |  |  |  |  |  |  |  |  | 0 ± 0 |  |  |
| CC[C@H](C)[C@H](NC(=O)[C@H](CCCCN)NC(=O)[C@H](CCCCN)NC(=O)[C@H](CC(C)C)NC(=O)[C@H](CCCCN)NC(=O)[C@H](CCC(=O)O)NC(=O)[C@H](CCCCN)NC(=O)[C@@H](NC(=O)[C@H](CCCCN)NC(=O)[C@H](CC(N)=O)NC(=O)[C@H](CCCNC(=N)N)NC(=O)[C@H](Cc1ccccc1)NC(=O)[C@H](CCCCN)NC(=O)[C@H](CCCNC(=N)N)NC(=O)[C@H](CC(C)C)NC(=O)[C@H](CCCNC(=N)N)NC(=O)[C@H](CCCCN)NC(=O)[C@H](CCCNC(=N)N)NC(=O)[C@H](CC(C)C)NC(=O)CN)[C@@H](C)CC)C(=O)NCC(=O)N[C@@H](CCC(N)=O)C(=O)N[C@@H](CCCCN)C(=O)N[C@H](C(=O)N[C@@H](CCC(N)=O)C(=O)NCC(=O)N[C@@H](CC(C)C)C(=O)N[C@@H](CC(C)C)C(=O)N1CCC[C@H]1C(=O)N[C@@H](CCCCN)C(=O)N[C@@H](CC(C)C)C(=O)N[C@@H](C)C(=O)N1CCC[C@H]1C(=O)N[C@@H](CCCNC(=N)N)C(=O)N[C@H](C(=O)N[C@@H](CC(=O)O)C(=O)N[C@@H](Cc1ccc(O)cc1)C(=O)O)[C@@H](C)O)[C@@H](C)CC [Cap18] (H-GLRKRLRKFRNKIKEKLKKIGQKIQGLLPKLAPRTDY-OH) |  | 4 to 8 | 4 | 4 | 4 | 4 | 2 | 2 | 2 | 2 |  | 4 | 8 |
| CC[C@H](C)[C@H](NC(=O)[C@H](CC(C)C)NC(=O)[C@H](CCCCN)NC(=O)[C@H](CC(C)C)NC(=O)[C@H](CC(C)C)NC(=O)[C@H](CCCCN)NC(=O)[C@H](CCCNC(=N)N)NC(=O)[C@H](Cc1ccccc1)NC(=O)[C@H](CC(C)C)NC(=O)[C@H](CCCCN)NC(=O)[C@H](CCCNC(=N)N)NC(=O)[C@H](CC(C)C)NC(=O)[C@@H](N)CCCCN)C(=O)N[C@@H](CCCNC(=N)N)C(=O)N[C@@H](CCCCN)C(=O)N[C@@H](CC(C)C)C(=O)N[C@@H](CC(C)C)C(=O)N[C@@H](CCCNC(=N)N)C(=O)O [Cap11-1-18m^2] (H-KLRKLFRKLLKLIRKLLR-OH) |  | 16 | 8 | 8 | 8 | 8 | 16 | 16 | 16 | 16 |  | 32 | 32 |

Reference: publication PMC4684357, “Comparative Evaluation of the Antimicrobial Activity of Different Antimicrobial Peptides against a Range of Pathogenic Bacteria” (PLoS ONE, 2015)
